Legend:
[1] = tested on: patients with Alzheimer's disease; assay: AZ310866 Phase 2b study, ADAS-Cog score vs placebo; assay type: in vivo, human
Protocol: (§1) The 35 mg dose was evaluated in four Phase 2 trials and is the dose being evaluated in a Phase 3 pivotal study. In the AZ310866 Phase 2b study, there was a dose dependent increase in efficacy vs placebo in the ADAS-Cog score between 15 mg (−0.7 units) and 35 mg (−1.7 units). […] These benefits need to be balanced with the potential for adverse events, in particular, the CNS toxicity observed in dogs and rabbits described below. […] In the 26-week dog study, one high-dose dog had seizures on Day 55 and was euthanized. A second dog had seizures on Day 59 and survived. For the second dog, plasma samples taken approximately 5 minutes and two hours after the seizure (4 and 6 hours post dose on Day 59) had SB742457 concentrations of 1570 and 1440 ng/mL, respectively. […] In study SB742457/005, elderly subjects received 35 mg once daily of 3-phenylsulfonyl-8-piperazinyl-1yl-quinoline for 28 days. […] This mean value is approximately ¼th the Cmax value observed in dogs with seizures. The maximum concentration that may be achieved is approximately ½ the Cmax value observed in the 2 dogs with seizures. […]

[2] = rat maximal electroshock seizure threshold test; details: in vivo, exposure at which seizure threshold was not decreased, read-out: extrapolated Cmax
Protocol: as §1

rabbits = assay: nonclinical studies, seizures in rabbits; assay type: in vivo
Protocol: as §1

in vivo = details: dog
Protocol: (§2) The 35 mg dose was evaluated in four Phase 2 trials and is the dose being evaluated in a Phase 3 pivotal study. In the AZ310866 Phase 2b study, there was a dose dependent increase in efficacy vs placebo in the ADAS-Cog score between 15 mg (−0.7 units) and 35 mg (−1.7 units). […] These benefits need to be balanced with the potential for adverse events, in particular, the CNS toxicity observed in dogs and rabbits described below. […] In the 26-week dog study, one high-dose dog had seizures on Day 55 and was euthanized. A second dog had seizures on Day 59 and survived. For the second dog, plasma samples taken approximately 5 minutes and two hours after the seizure (4 and 6 hours post dose on Day 59) had SB742457 concentrations of 1570 and 1440 ng/mL, respectively. […] In study SB742457/005, elderly subjects received 35 mg once daily of 3-phenylsulfonyl-8-piperazinyl-1yl-quinoline for 28 days. […] This mean value is approximately ¼th the Cmax value observed in dogs with seizures. The maximum concentration that may be achieved is approximately ½ the Cmax value observed in the 2 dogs with seizures. To further understand the risk to humans, SimCYP population PBPK modelling was used to predict brain concentrations of 3-phenylsulfonyl-8-piperazinyl-1yl-quinoline in dogs exposed to the concentrations linked with seizures, and to compare these with predicted human brain concentrations at the clinical dose of 35 mg. The simulations predicted that the human steady-state brain concentrations following repeat administration with 35 mg would be approximately 40-fold lower than the brain concentrations associated with seizures in dogs. Assuming linear pharmacokinetics, the human steady-state brain concentrations with 70 mg would be approximately 20-fold lower than the brain concentrations associated with convulsions in dogs. […] Furthermore, in Phase 2 studies encompassing 1024 patients with Alzheimer's disease at doses of 5 mg to 35 mg per day, two subjects reported seizures, both in the Phase 2b study with 3-phenylsulfonyl-8-piperazinyl-1yl-quinolone administered as adjunctive therapy to donepezil. One subject was in the placebo group and one in the 15 mg 3-phenylsulfonyl-8-piperazinyl-1yl-quinoline group. The subject receiving 3-phenylsulfonyl-8-piperazinyl-1yl-quinoline was hospitalized with a suspicion of a TIA and experienced a seizure, which was reported by the PI as not attributable to study drug.

dogs = assay: in vivo; details: dog
Protocol: as §2

mice = assay: nonclinical studies, seizures in mice; assay type: in vivo
rats = assay: nonclinical studies, seizures in rats; assay type: in vivo
[3] = study SB742457/005, pharmacokinetics in elderly subjects; assay type: in vivo, human; details: for Cmax: human, plasma
Protocol: as §2

healthy subjects = assay: clinical studies with healthy subjects (n=225), seizures; assay type: in vivo; details: single doses of up to 175 mg and repeat doses of up to 50 mg for 13 days
Protocol: as §1

[4] = tested on: patients with Alzheimer's disease; assay: Phase 2 studies in 1024 patients with Alzheimer's disease, seizures; assay type: in vivo; details: 15 mg group, Phase 2b study, adjunctive therapy to donepezil; reported as not attributable to study drug
Protocol: as §1

clinical = details: human, in vivo
[5] = tested on: healthy rat brain glucose utilization; assay: FDG-PET/CT brain glucose utilization in healthy rats; assay type: in vivo; details: healthy young CD rats, 10 mg/kg or 20 mg/kg 3 h prior to FDG; pairwise comparisons did not reach statistical significance
Source text: 3-phenylsulfonyl-8-piperazinyl-1yl-quinoline is a potent antagonist of the 5-hydroxytryptamine 6 (5-HT6) serotonin receptor. Reduced glucose utilization is an early sign of decreasing brain function in AD. Altered neuronal glucose uptake assessed by flurodeoxyglucose-positron emission tomography (FDG-PET) may be useful as a diagnostic foundation for identifying patients with AD. This study evaluates 3-phenylsulfonyl-8-piperazinyl-1yl-quinoline at clinically relevant doses on healthy rat brain glucose utilization using FDG-PET/CT.
Methods: Healthy, young CD rats were pre-dosed with vehicle (1% methylcellulose, w/v) or RVT-101 (10 mg/kg or 20 mg/kg) 3 h prior to FDG (18.1±3.5 MBq, i.v.). Brain FDG standard uptake values (SUV) were quantified using scanning in single 20 min list mode (BioPET/CT, Sedecal) starting 30 min post FDG dosing. PET/CT scans were analyzed as a single time frame summarizing counts over 20 min. All experiments were completed in an accredited facility according to NIH guidelines. PET/CT imaging data were analyzed using Student's t-test, cluster analysis, and multivariate analysis of variance (MANOVA) using a subset of SUV from 5 cluster-identified regions.

With O=S(=O)(c1ccccc1)c1cnc2c(N3CCNCC3)cccc2c1 [3-phenylsulfonyl-8-piperazinyl-1yl-quinoline] the “increase in efficacy vs placebo in the ADAS-Cog score” value ([1]; 15 mg) was −0.7 units, the “increase in efficacy vs placebo in the ADAS-Cog score” value ([1]; 35 mg) was −1.7 units and the Cmax [2] was 1890 ng/mL. The seizures (rabbits; nonclinical studies) was “caused seizures”, the seizures (rabbits; single dose at 300 mg/kg, exceeded the maximum tolerated repeat-dose level) was “seizures were produced” and the Cmax (in vivo) was 1700 ng/mL. The concentration at 4 h post dose on Day 59 (in vivo) was 1570 ng/mL, the concentration at 6 h post dose on Day 59 (in vivo) was 1440 ng/mL and the “plasma concentration associated with an increased seizure risk” value (dogs) was over 1570 ng/mL. For the same compound, the plasma concentrations achieved (dogs) was “up to 1937 ng/mL”, the seizures (dogs; 7.5 mg/kg/day) was “did not occur” and the seizures (mice) was “not in rodents”. The seizures (rats) was “not in rodents”, the Cmax ([3]; both sexes, 35 mg, elderly subjects, 35 mg once daily for 28 days, read-out: highest recorded Cmax) was 307 ng/mL and the Cmax ([3]; female, 35 mg, elderly females, 35 mg once daily for 28 days, read-out: mean Cmax) was 177 ng/mL. For the same compound, the “expected maximum concentration at 70 mg relative to the Cmax observed in the 2 dogs with seizures” value ([3]; human 70 mg vs dog) was “approximately ½”, the “expected mean Cmax at 70 mg relative to the Cmax observed in dogs with seizures” value ([3]; human 70 mg vs dog) was “approximately ¼” and the Cmax ([3]; oral, 70 mg, multiple dosing with 70 mg, extrapolated given linear human pharmacokinetics, read-out: expected maximum Cmax) was 714 ng/mL. The Cmax ([3]; oral, 70 mg, multiple dosing with 70 mg, extrapolated given linear human pharmacokinetics, read-out: expected mean Cmax) was about 360 ng/mL, the Cmax ([3]; male, 35 mg, elderly males, 35 mg once daily for 28 days, read-out: mean Cmax) was 181 ng/mL and the seizures (healthy subjects) was “no seizures were observed”. For the same compound, the subjects reporting seizures [4] was “one”, the AUC (clinical) was about 3200 ng·h/mL and the AUC(0-inf) (clinical) was about 9250 ng·h/mL. For the same compound, the Cmax (clinical; Cmax) was about 293 ng/mL, the Cmax (clinical; mean Cmax) was about 180 ng/mL and the “brain glucose uptake (FDG SUV)” value [5] was “trend of increased glucose uptake”.
